# Literature values in patent US20020090642A1, “METHODS FOR DETERMINING THE PROGNOSIS OF BREAST CANCER USING ANTIBODIES SPECIFIC FOR THYMIDYLATE SYNTHASE” (priority 1995, published 2002).
# Test system: TS
# Details: 24 hours post-fluorouracil therapy, tumor biopsy samples
smiles,measurement,value
O=c1[nH]cc(F)c(=O)[nH]1 [fluorouracil],increase in TS,2- to 6 fold
